Data taken from paper PMC12073402, “A Selective MAP3K1 Inhibitor Facilitates Discovery of NPM1 as a Member of the Network” (Molecules, 2025).

What was measured:
Test in all cases: KiNativ kinome profiling in PANC-1 lysate
Type in all cases: binding
[1] = target: T1, STK33 (Homo sapiens, UniProt Q9BYT3); settings: Lys2
T1 construct: endogenous in cells; host or cells: PANC-1 cell lysate
In short: (§1)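 PANC-1 lysates were incubated with 5 μM inhibitor or DMSO, then labeled with a desthiobiotin-ATP acyl-phosphate probe that biotinylates conserved kinase lysines. Tryptic peptides were streptavidin-enriched and quantified by LC-MS/MS, reported as % change in MS signal from duplicate treated and duplicate control samples.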

[2] = tested on: CK1d, CK1e; settings: 5 µM; Lys2; DVKPDNFLMGLGKK
In short: as §1

[3] = target: T2, PIP4K2A (Homo sapiens, UniProt P48426); settings: ATP
T2 construct: endogenous in cells; host or cells: PANC-1 cell lysate
T2 sequence (P48426 whole entry): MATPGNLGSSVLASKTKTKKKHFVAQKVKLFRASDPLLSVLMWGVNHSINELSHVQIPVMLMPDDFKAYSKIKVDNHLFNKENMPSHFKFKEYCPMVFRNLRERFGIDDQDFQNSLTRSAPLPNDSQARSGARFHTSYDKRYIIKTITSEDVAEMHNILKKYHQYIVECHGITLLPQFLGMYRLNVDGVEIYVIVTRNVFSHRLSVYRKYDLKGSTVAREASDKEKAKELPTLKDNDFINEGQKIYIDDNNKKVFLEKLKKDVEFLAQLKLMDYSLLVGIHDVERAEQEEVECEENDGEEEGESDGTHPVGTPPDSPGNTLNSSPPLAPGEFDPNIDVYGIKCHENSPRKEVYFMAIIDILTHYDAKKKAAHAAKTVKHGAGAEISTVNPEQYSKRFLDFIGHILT
In short: as §1

[4] = target: T3, eEF2K (Homo sapiens, UniProt O00418); settings: ATP
T3 construct: endogenous in cells; host or cells: PANC-1 lysate
In short: as §1

[5] = target: T4, MLK3 (Homo sapiens, UniProt Q16584); settings: Lys2
T4 construct: endogenous in cells; host or cells: PANC-1
In short: as §1

[6] = target: T5, HCK (Homo sapiens, UniProt P08631)
T5 construct: we opted to conduct a kinome screen (KiNativ) in PANC-1 cell lysates; endogenous in cells; host or cells: PANC-1 cell lysate
T5 sequence (P08631 whole entry): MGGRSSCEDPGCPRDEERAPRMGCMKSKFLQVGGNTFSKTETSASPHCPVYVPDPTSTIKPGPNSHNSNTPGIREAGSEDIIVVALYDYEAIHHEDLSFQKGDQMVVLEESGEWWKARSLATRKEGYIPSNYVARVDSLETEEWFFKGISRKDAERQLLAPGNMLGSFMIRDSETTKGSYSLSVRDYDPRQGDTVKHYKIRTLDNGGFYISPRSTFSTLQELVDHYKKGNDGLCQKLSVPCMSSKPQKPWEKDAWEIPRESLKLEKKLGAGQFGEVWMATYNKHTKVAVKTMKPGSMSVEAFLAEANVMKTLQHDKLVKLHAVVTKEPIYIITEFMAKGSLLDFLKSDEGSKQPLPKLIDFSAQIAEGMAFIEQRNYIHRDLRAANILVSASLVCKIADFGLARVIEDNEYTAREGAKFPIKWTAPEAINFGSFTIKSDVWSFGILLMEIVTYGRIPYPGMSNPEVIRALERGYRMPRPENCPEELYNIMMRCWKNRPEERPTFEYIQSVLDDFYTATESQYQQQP
In short: as §1

[7] = target: T6, TEC (Homo sapiens, UniProt P42680); settings: ATP Loop
T6 construct: endogenous in cells; host or cells: PANC-1 cell lysate
In short: as §1

[8] = target: T7, AKT1 (Homo sapiens, UniProt P31749); settings: ATP Loop
T7 construct: endogenous in cells; host or cells: PANC-1 cell lysate
T7 sequence (P31749 whole entry): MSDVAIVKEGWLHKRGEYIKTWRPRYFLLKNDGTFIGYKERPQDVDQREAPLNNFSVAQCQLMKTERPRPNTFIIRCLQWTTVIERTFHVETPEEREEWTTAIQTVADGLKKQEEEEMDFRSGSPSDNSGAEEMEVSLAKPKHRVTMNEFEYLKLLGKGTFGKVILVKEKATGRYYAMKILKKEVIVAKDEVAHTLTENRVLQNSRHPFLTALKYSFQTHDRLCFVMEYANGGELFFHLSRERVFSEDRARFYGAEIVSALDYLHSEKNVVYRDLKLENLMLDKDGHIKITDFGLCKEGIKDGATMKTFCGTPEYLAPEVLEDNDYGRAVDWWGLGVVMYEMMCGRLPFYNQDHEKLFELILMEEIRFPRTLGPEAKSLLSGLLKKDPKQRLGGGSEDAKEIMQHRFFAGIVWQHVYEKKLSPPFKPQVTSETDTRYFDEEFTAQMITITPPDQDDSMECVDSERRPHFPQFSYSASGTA
In short: as §1

[9] = target: T8, EphB3 (Homo sapiens, UniProt P54753); settings: ATP Loop
T8 construct: endogenous in cells; host or cells: PANC-1 lysate
T8 sequence (P54753 34-998): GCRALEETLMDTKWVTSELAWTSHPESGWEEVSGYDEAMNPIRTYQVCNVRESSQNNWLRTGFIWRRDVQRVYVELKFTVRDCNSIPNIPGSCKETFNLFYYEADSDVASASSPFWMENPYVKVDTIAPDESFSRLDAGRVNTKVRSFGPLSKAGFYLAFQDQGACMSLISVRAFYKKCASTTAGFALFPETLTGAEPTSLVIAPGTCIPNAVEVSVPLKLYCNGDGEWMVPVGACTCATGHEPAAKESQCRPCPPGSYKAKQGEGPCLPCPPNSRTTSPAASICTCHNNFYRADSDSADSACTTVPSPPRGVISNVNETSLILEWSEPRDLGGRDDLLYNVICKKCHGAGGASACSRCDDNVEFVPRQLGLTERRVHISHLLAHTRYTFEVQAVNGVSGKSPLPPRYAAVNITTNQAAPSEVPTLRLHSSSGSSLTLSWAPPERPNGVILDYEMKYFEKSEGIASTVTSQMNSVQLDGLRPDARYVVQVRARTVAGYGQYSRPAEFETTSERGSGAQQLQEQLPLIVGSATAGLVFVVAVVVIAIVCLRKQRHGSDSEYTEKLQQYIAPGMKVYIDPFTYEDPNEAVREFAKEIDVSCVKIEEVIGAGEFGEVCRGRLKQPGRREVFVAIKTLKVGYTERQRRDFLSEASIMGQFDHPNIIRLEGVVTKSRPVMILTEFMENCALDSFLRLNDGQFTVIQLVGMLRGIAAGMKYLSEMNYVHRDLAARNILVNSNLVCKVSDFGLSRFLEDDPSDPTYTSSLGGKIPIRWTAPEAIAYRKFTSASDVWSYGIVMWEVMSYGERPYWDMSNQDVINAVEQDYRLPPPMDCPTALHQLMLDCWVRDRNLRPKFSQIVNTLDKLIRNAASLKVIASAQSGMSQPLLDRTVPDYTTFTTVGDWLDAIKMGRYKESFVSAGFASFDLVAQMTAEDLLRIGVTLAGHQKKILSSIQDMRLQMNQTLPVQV
In short: as §1

[10] = target: T9, MASTL (Homo sapiens, UniProt Q96GX5)
T9 construct: endogenous in cells; host or cells: PANC-1
T9 sequence (Q96GX5 whole entry): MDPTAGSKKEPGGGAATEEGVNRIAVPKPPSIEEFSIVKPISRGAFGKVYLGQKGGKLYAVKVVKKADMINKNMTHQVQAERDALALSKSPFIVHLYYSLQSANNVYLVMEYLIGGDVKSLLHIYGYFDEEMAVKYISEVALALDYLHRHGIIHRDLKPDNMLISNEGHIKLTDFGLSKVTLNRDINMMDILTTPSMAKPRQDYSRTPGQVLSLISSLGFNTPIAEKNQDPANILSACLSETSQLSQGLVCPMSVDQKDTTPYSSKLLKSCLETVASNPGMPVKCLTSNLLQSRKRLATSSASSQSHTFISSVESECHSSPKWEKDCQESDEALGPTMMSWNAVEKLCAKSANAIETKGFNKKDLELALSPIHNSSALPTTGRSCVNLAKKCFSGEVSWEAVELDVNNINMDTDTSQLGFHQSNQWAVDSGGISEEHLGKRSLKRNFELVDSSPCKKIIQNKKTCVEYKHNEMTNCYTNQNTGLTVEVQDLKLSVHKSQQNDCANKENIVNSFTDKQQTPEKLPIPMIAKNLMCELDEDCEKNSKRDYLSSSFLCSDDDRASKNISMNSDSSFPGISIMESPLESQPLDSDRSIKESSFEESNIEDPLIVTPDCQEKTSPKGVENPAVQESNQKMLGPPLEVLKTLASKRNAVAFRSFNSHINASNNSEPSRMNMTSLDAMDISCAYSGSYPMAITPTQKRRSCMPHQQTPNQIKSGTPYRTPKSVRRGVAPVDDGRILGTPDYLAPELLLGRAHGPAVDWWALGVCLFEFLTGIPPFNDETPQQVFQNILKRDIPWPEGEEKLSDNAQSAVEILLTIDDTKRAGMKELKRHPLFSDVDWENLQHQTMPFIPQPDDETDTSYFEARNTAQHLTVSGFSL
In short: as §1

[11] = target: T10, MLKL (Homo sapiens, UniProt Q8NB16); settings: Lys1
T10 construct: endogenous in cells; host or cells: PANC-1
In short: as §1

[12] = tested on: MARK2, MARK3; settings: 5 µM; Lys2; DLKAENLLLDADMNIK
In short: as §1

[13] = tested on: DRAK1, DRAK2; settings: 5 µM; ATP Loop; GKFAVVR
In short: as §1

[14] = target: T11, CLK2 (Homo sapiens, UniProt P49760); settings: Lys2
T11 construct: endogenous in cells; host or cells: PANC-1 cell lysate
In short: as §1

[15] = target: T12, SBK (Homo sapiens, UniProt Q52WX2); settings: Lys2
T12 construct: endogenous in cells; host or cells: PANC-1 cell lysate
In short: as §1

[16] = target: T13, MAP2K1 (Homo sapiens, UniProt Q02750); settings: Lys2
T13 construct: endogenous in cells; host or cells: PANC-1 cell lysate
In short: as §1

[17] = target: T14, EGFR, EGFR-L858R (Homo sapiens, UniProt P00533)
T14 construct: endogenous in cells; host or cells: PANC-1 lysate
T14 sequence (P00533 25-1210 L858R): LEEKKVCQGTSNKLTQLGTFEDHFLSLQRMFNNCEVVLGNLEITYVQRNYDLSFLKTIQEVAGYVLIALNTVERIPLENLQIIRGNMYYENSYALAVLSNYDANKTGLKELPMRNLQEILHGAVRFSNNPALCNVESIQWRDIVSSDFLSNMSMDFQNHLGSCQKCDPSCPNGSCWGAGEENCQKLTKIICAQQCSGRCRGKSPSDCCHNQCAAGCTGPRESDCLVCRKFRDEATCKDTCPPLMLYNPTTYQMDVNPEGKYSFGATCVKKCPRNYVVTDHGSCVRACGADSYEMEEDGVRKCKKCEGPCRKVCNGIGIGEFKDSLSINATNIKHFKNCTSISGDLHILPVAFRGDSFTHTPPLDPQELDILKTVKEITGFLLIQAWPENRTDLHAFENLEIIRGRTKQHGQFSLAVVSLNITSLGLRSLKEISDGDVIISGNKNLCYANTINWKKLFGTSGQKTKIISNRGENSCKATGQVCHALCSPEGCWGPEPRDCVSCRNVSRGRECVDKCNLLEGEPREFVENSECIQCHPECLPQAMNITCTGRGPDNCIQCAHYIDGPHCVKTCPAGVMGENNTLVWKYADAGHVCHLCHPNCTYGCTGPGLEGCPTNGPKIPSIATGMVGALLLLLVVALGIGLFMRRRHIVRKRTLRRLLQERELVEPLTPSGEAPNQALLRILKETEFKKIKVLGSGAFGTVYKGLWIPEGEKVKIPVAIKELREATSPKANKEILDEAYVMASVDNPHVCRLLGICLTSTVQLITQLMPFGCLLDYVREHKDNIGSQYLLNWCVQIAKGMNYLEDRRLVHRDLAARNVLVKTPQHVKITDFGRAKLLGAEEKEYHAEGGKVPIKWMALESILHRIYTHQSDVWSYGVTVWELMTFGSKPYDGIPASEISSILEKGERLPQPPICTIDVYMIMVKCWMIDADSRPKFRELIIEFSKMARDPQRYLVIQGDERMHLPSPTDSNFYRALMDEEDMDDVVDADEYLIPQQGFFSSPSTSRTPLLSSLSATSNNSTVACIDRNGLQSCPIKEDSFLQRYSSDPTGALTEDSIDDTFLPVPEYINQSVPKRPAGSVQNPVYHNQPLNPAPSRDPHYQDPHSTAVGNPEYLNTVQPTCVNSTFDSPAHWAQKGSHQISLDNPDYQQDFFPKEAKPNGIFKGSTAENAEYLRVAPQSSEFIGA
In short: as §1

[18] = target: T15, MRCKb (Homo sapiens, UniProt Q9Y5S2); settings: Lys2
T15 construct: endogenous in cells; host or cells: PANC-1
In short: as §1

[19] = target: T16, JAK1 domain1 (Homo sapiens, UniProt P23458); settings: ATP Loop
T16 construct: we opted to conduct a kinome screen (KiNativ) in PANC-1 cell lysates; endogenous in cells; host or cells: PANC-1 cell lysate
In short: as §1

[20] = tested on: KSR1, KSR2; settings: 5 µM; ATP Loop; SKNVFYDNGK
In short: as §1

T1 sequence (Q9BYT3 whole entry): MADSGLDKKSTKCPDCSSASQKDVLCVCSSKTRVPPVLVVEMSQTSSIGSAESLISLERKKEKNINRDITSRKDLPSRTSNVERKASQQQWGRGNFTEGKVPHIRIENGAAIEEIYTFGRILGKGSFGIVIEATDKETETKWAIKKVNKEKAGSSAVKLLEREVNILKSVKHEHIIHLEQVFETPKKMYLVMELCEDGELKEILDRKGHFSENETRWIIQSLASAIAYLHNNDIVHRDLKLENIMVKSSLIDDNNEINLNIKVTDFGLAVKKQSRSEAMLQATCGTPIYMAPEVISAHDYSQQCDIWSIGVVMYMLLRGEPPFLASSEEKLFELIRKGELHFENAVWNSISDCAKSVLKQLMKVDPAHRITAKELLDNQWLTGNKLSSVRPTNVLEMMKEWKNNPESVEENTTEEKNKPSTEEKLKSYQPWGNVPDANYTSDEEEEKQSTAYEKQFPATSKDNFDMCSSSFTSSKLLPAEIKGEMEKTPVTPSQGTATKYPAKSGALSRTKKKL

`Cn1cc(-c2cnc3ccc(NC(=O)Nc4ccc(F)c(C(F)(F)F)c4)cc3n2)cn1` [51-106, 1-(4-Fluoro-3-(trifluoromethyl)phenyl)-3-(3-(1-methyl-1H-pyrazol-4-yl)quinoxalin-6-yl)urea] was tested, and the inhibition at 5 µM [1] was 26.6%, the “% Inhibition” value [2] was “NB (NB = No Binding (≤ 0))” and the inhibition at 5 µM ([3]; AKELPTLKDNDFINEGQK) was at most 0%. It also gave an inhibition at 5 µM ([3]; YIIKTITSEDVAEMHNILK) of 4.5%, an inhibition at 5 µM [4] of 6.3% and an inhibition at 5 µM [5] of 1.3%. For the same compound, the “% Inhibition” value ([6]; 5 µM, ATP Loop, EGAKFPIKWTAPEAINFGSFTIK) was “NB (NB = No Binding (≤ 0))”, the inhibition at 5 µM ([6]; Lys1, […]) was at most 0% and the inhibition at 5 µM [7] was 20.1%. It also gave an inhibition at 5 µM [8] of at most 0%, an inhibition at 5 µM [9] of 1.6% and an inhibition at 5 µM ([10]; ATP Loop, GAFGKVYLGQK) of 8.6%. The inhibition at 5 µM ([10]; Lys1, LYAVKVVK) was at most 0%, the inhibition at 5 µM [11] was at most 0% and the “% Inhibition” value [12] was 11.3%. For the same compound, the “% Inhibition” value [13] was 4.6%, the inhibition at 5 µM [14] was at most 0% and the inhibition at 5 µM [15] was at most 0%. For the same compound, the inhibition at 5 µM [16] was 11%, the inhibition at 5 µM ([17]; ATP Loop, LLGAEEKEYHAEGGKVPIK) was at most 0% and the inhibition at 5 µM ([17]; Lys1, IPVAIKELR) was 5.5%. The inhibition at 5 µM [18] was at most 0%, the inhibition at 5 µM [19] was at most 0% and the “% Inhibition” value [20] was 8.8%.
